Measurements from patent publication US20210212967A1, “Treatment of Irritable Bowel Syndrome” (Gruenenthal GmbH, priority 2010, published 2021).

How the values were obtained:
[1] = target: recombinantly produced p-opioid receptor (Homo sapiens, UniProt P35372); details: relative to morphine; cited from earlier work
[2] = clinical studies; cited from earlier work
[3] = test system: isolated guinea pig ileum; test: Twitch contractions of the electrically stimulated isolated guinea pig ileum
Protocol: It was investigated whether tapentadol is able to modulate gastrointestinal motility.
Male guinea pigs (PBW, Charles River, KiBlegg, FRG) weighing 250-350 g were used for the study. The animals were kept under standard housing conditions: light/dark rhythm (06.00-18.00 h light, 18.00-6.00 h dark); room temperature 22±2° C., rel. air humidity 55±5%; 15 air changes per hour, air movement <0,2 m/sec. The animals were given water and an exclusive diet of “Herilan RM 204” (Eggersmann Company, Rinteln/FRG) ad libitum. Before experimental preparation they were kept in groups of up to 5 animals in type IV Makrolon cages (Ebeco Company, Castrop-Rauxel, FRG). There were at least 4 days between delivery and test day.
Tapentadol hydrochloride was dissolved in aqua bidest. Final concentrations in the organ bath ranged from 3·10^−8 to 10^−5 M (cumulative drug application). As opioid antagonist naloxone (10^−6 M) was used.
A four-compartment organ bath (Dept. Biotechnology, Grunenthal GmbH) was employed with 20 ml acrylic glass compartments, organ supports and force transducers (F10 Force transducers, Type 375, HSE, FRG) for the determination of isometric contractions. The organ baths were filled and emptied by means of a semi-automatic dosing arrangement. The nutrient medium in the organ baths was kept at room temperature. In a nutrient storage chamber and in the organ baths the nutrient solution was gassed with carbogen through a frit from 30 min before commencement of the experiment.
The nutrient solution had the following composition:
Parameter: contraction force [g]
Guinea pigs were killed in CO2-atmosphere and the ileum was dissected free from adhering tissue, removed and suspended in the organ bath. After an incubation period of at least 30 min, transmural stimulation pulses were delivered with a duration of 1 ms and an amplitude of 180 mA at 0.03 Hz (Stimulator A310, WPI, FRG) and isometric contractions (Twitch reactions) were recorded. The preparations were pre-tensioned with 1 g. […]
Data were calculated as the mean stimulated contraction force during the period of 4 to 6 min. p. appl. and expressed as percentage of the pre-value. […] All results were expressed as means±s.e.m. of 4 single experiments. For determination of 1050 values, regression lines (y=f log x) were constructed and 1050 values with s.e.m. were calculated using a computer-assisted regression analysis program (Grünenthal GmbH). The reversal of the test compound's activity by the antagonist was expressed as the percentage of the effects of the combination of agonist and antagonist referred to the effects of the test compound alone in the highest concentration according to the following formula: […]

[4] = test system: visceral hyperalgesia induced by rectal administration of mustard oil in mice; test: Mustard oil colitis (visceral pain), prophylactic treatment; assay type: in vivo; details: i.v. 5 min before mustard oil
Source text: (§1) The effects of tapentadol hydrochloride on visceral hyperalgesia were studied, which was induced by rectal administration of mustard oil in mice (according to Laird J M, Martinez-Caro L, Garcia-Nicas E, Cervero F. (2001) A new model of visceral pain and referred hyperalgesia in the mouse. Pain 92: 335-42). The typical visceral pain behaviour was quantified in three parameters: During the first minutes after mustard oil administration spontaneous visceral pain behaviour occurs. Following this period of spontaneous pain, referred allodynia and hyperalgesia can be quantified by means of von Frey filaments of different strength stimulating the abdomen of the mice.
(§2) Male NMRI mice (28-38 g body weight) from a commercial breeder (Iffa Credo, France) were used. The animals were housed under standardized conditions: light/dark cycle (06.00-18.00 h light, 18.00-06.00 h dark), room temperature 20-24° C., relative air humidity 35-70%, 15 air changes per hour, air movement <0,2 m/sec, tap water and standard diet ad libitum, macrolon type 4 cages with maximally 30 animals per cage. There were at least 5 days between delivery and start of the experiment.
(§3) Tapentadol hydrochloride was dissolved in vehicle solution and injected intra-venously. • Doses: 2.15/ 4.64/ 10.0 mg/kg i.v. (prophylactic) 10.0/ 21.5/ 31.6 mg/kg i.v. (curative) • Administration volume: 10 ml/kg
(§4) Vehicle solution: 0.9% NaCl solution (Fresenius, Bad Homburg, FRG)
(§5) Mustard oil was dissolved in vehicle solution and administered intra-rectally Dose: 50 μl of a 3.5 Vol-% solution per animal • Vehicle solution: PEG 200
Animals were habituated to the test conditions for 20-30 min and stimulated with von Frey filaments onto the abdominal wall. 10 stimulations with von Frey filaments of 1, 4, 8, 16, and 32 mN were applied in ascending order (i.e. 10×1 mN, 10×4 mN, etc.). Animals with more than 25 positive reactions during this phase were excluded. […]
Tapentadol hydrochloride or vehicle was given intravenously (i.v.) 5 min before mustard oil. […] The following parameters were counted: […]

[5] = test system: visceral hyperalgesia induced by rectal administration of mustard oil in mice; test: Mustard oil colitis (visceral pain), curative treatment; assay type: in vivo
Source text: as §1, §2, §3, §4, §5
Animals were habituated to the test conditions for 20-30 min and stimulated with von Frey filaments onto the abdominal wall. 10 stimulations with von Frey filaments of 1, 4, 8, 16, and 32 mN were applied in ascending order (i.e. 10×1 mN, 10×4 mN, etc.). Animals with more than 25 positive reactions during this phase were excluded. Vaseline was applied in the perianal area to avoid the stimulation of somatic areas with the irritant chemical. Colitis was induced by rectal administration of […] mustard oil (3.5%). Control animals were treated with vehicle (50 μl PEG200). Group sizes were n =7 for all experiments.
Tapentadol hydrochloride or vehicle was given intravenously (i.v.) 4 hours after mustard oil. Seven animals were tested per group. The following parameters were counted 10 minutes before and at different time points after administration of the test compound or vehicle: • 1. Referred allodynia (number of reactions): counting of withdrawal reactions against 10 stimulations with a 1 mN von Frey filament. • 2. Referred hyperalgesia (referred pain score): counting and scoring of withdrawal reactions against 10 stimulations with a 16 mN von Frey filament (Score 1-3, 1=lifting of abdomen, licking, movement, 2=extrusion or flinching of hind paws, slight jumping, strong licking, 3=strong jumping, vocalisation). Percent of maximal possible effect (% MPE) was calculated for each animal based on the baseline taken 10 min before administration of compound or vehicle.
Significance was calculated by paired T-test (* 0.05≥p>0.01; ** 0.01≥p>0.001; *** p≤0.001. ED50 values and 95% confidence intervals were calculated by linear regression.

Chain of recombinantly produced p-opioid receptor (P35372 whole entry): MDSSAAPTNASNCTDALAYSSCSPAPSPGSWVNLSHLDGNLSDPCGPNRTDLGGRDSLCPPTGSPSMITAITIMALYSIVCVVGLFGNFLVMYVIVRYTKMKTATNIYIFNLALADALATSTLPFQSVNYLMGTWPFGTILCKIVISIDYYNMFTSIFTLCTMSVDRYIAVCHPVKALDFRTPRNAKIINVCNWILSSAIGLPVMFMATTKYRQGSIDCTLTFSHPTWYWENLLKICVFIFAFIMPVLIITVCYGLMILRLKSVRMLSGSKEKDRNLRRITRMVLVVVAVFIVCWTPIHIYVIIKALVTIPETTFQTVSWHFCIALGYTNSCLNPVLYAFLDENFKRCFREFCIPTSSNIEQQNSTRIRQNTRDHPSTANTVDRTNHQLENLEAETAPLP

Compound	affinity, times less than that of morphine [1] [times]	pain-alleviating action relative to morphine [2]	IC50 ([3]; Cavia porcellus, electrically induced twitch contractions, cumulative application 3·10^−8 to 10^−5 M, mean ± s.e.m. of 4 experiments) [µM]	% reversal by naloxone ([3]; naloxone 10^−6 M added after the last application, without wash out) [%]	threshold concentration ([3]; reduction of electrically induced contractions)	Twitch contraction remaining at highest concentration (% of pre-value) ([3]; twitch reaction remaining at highest concentration 10^−5 M, mean ± s.e.m., hydrochloride) [% pre-value]	ED50 referred allodynia (95% confidence intervals) ([4]; 1 mN von Frey filament, 20-40 min after mustard oil)	ED50 referred hyperalgesia (95% confidence intervals) ([4]; 16 mN von Frey filament, 20-40 min after mustard oil)	ED50 spontaneous visceral pain behaviour (95% confidence intervals) ([4]; scored 2-12 min after mustard oil)	efficacy reached at highest dose ([5]; 31.6 mg/kg i.v.)	ED50 referred allodynia (95% confidence intervals) ([5]; i.v. 4 hours after mustard oil, 1 mN von Frey filament)	ED50 referred hyperalgesia (95% confidence intervals) ([5]; i.v. 4 hours after mustard oil, 16 mN von Frey filament)	duration of action in the referred hyperalgesia ([5]; i.v., time course)	time of maximal efficacy after administration ([5]; i.v., time course) [min]
CC[C@@H](c1cccc(O)c1)[C@@H](C)CN(C)C [tapentadol, (1R,2R)-3-(3-dimethylamino-1-ethyl-2-methyl-propyl)-phenol]	18	two to three times less than that of morphine												
CC[C@@H](c1cccc(O)c1)[C@@H](C)CN(C)C.Cl [tapentadol hydrochloride, (1 R,2R)-3-(3-dimethylamino-1-ethyl-2-methyl-propyl)-phenol hydrochloride]			1.49 ± 0.2	33.3	about 10^−7 M	5.77±1.26	3.75 (2.76-4.75) mg/kg i.v.	3.93 (2.32-5.69) mg/kg i.v.	1.47 (0.51-2.28) mg/kg i.v.	Almost full efficacy	21.7 (19.3-25.0) mg/kg i.v.	16.3 (12.5-19.9) mg/kg i.v.	more than 2 h	20
